Test results as given in publication PMC11054459 (Molecules, 2024).
Blank lines part the entries; values can stand above or below the molecule they belong to. Residues, ends and D or L forms follow the SMILES beside them. No end group written: not given here. *: point of attachment. X1 = NC(=O)C[C@H](N=C[C@H](O)[C@@H](O)[C@@H](O)[C@H](O)CO)C(=O)*; X2 = NC(=O)C[C@H](N=C[C@H](O)[C@@H](O)[C@H](O)[C@H](O)CO)C(=O)*

Legend:
[1] = system: heart, liver, spleen, lung, kidney of MC38 tumor-bearing mice; test: H&E staining of major organs; assay type: in vivo, mouse; settings: 1 and 3 mg/kg i.p., vs. normal saline control
Description: Tumor tissue and heart, liver, spleen, lung, and kidney tissues were isolated from MC38 tumor-bearing mice and fixed in 4.0% paraformaldehyde. The samples were subsequently embedded in paraffin and subjected to hematoxylin and eosin staining. The results were analyzed using ImageJ1 software (NIH, Bethesda, MD, USA).

[2] = molecular target: mouse PD-L1 (mPD-L1) (Mus musculus, UniProt Q9EP73); test: MST binding assay, mPD-L1; settings: microscale thermophoresis (MST); mPD-L1-His 800 nM, RED-NHS dye, PBST; peptide 400 μM to 0.012 μM; triplicate, mean ± SEM; read-out: dissociation constant (KD), mPD-L1
Sequence of mouse PD-L1 (mPD-L1) (Q9EP73 19-290): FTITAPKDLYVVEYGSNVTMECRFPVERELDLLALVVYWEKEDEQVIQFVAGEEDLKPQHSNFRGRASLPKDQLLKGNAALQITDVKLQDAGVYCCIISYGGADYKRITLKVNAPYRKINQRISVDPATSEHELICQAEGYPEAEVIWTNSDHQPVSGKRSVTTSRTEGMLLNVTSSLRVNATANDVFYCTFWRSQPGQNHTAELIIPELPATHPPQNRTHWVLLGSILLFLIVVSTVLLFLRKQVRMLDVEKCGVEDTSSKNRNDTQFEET
Description: The concentrations of hPD-L1-His and mPD-L1-His proteins were adjusted to 200 nM and 800 nM, respectively, utilizing PBST as the diluent. Simultaneously, the concentration of RED-NHS676 dye was diluted to 100 nM in PBST. Subsequently, protein and dye were subjected to co-incubation at a volumetric ratio of 1:1 for a duration of 30 min, thereby facilitating the generation of labeled proteins. To establish peptide gradients, a progressive dilution was initiated from an initial concentration of 400 μM, eventually reaching 0.012 μM. Following this preparation, a homogenous amalgamation comprising 5 μL of labeled protein and 5 μL of small molecule diluent was extracted for further experimentation. Subsequently, the samples were transferred to standard capillary tubes and analyzed by an MST instrument (Nano Temper, Monolith NT.115, München, Germany).

[3] = Body weight of MC38 tumor-bearing mice; assay type: in vivo, mouse; settings: 1 and 3 mg/kg i.p. once daily for two weeks
Description: Animal experiments were approved by the Zhengzhou University Ethics Committee. MC38 cells (1 × 10^6) were subcutaneously inoculated into C57BL/N mice. The MC38 tumor-bearing mice were randomly allocated to three groupsn (n = 5 per group): a control group (NS, normal saline containing 1% DMSO); a D-gal-^LPPA-1 peptide group (1 mg/kg); and a D-gal-^LPPA-1 peptide group (3 mg/kg). Daily intraperitoneal injections of the peptide were initiated when the tumor volume reached 50–90 mm^3. The tumor dimensions, including length, width, and height, were measured, and tumor volume was calculated using the following formula:V = 1/2 × A (length) × B (width) × C (height).

[4] = molecular target: hPD-1/hPD-L1 interaction (CHO-K1-hPD-1 cells, hPD-L1 protein) (Homo sapiens, UniProt Q9NZQ7); test: Peptide blocking assay (flow cytometry); assay type: cell-based; settings: CHO-K1-hPD-1 cells 3 × 10^5 per sample, 50 ng hPD-L1, peptide + protein 30 min, + cells 30 min, on ice, 200 μM to 1.6 μM, means ± SEMs from three independent biological triplicates, read-out: IC50, blocking of PD-1/PD-L1 interaction
Sequence of hPD-1/hPD-L1 interaction (CHO-K1-hPD-1 cells, hPD-L1 protein) (Q9NZQ7 19-238 limits assumed): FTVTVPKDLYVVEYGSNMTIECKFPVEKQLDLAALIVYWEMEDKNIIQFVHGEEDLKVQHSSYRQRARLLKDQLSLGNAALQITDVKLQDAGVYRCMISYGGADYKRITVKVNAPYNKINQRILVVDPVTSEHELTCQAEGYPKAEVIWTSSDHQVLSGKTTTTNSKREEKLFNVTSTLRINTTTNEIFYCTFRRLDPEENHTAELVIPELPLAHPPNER
Description: The interaction between PD-1 and PD-L1 plays a pivotal role in suppressing T-cell function, and disrupting this interaction has emerged as a viable therapeutic strategy in cancer treatment. Thus, we investigated the inhibitory potential of D-glu-^LPPA-1 and D-gal-^LPPA-1 on the PD-1/PD-L1 interaction. To conduct the experiment, CHO-K1-hPD-1 cells were harvested at a density of 3 × 10^5 cells per sample. Peptides were solubilized to a concentration of 200 μM and serially diluted before coincubation with 50 ng of the hPD-L1 protein for 30 min. The protein–peptide mixture was introduced into CHO-K1-hPD-1 cells, which were then coincubated for an additional 30 min. The anti-Fc PE antibody was then added and incubated for 30 min. Flow cytometry was used to evaluate the efficacy of the peptides in blocking the hPD-1/hPD-L1 interaction.
For subsequent multi-concentration blocking assays, peptides were prepared in concentration gradients spanning 200 μM, 100 μM, 50 μM, 25 μM, 12.5 μM, and 6.25 μM. Peptides at different concentrations were incubated with hPD-L1 (mPD-L1) protein (50 ng) on ice for 30 min. Subsequently, the mixture was added to CHO-K1-hPD-1 or CHO-K1-mPD-1 cells and coincubated on ice for 30 min. […] The ability of the peptide to block the PD-1/PD-L1 interaction was assessed using flow cytometry.

[5] = molecular target: T1, hPD-L1-Fc (human, UniProt Q9NZQ7 19-238); test: flow cytometry on cells; blocking assay: peptide in serial dilution from 200 μM pre-incubated with 50 ng hPD-L1-Fc on ice for 30 min, mixture added to CHO-K1-hPD-1 cells (3 x 10^5 per sample) for 30 min, detected with anti-Fc PE antibody; settings: both partners purified
T1 construct: human PD-L1 (hPD-L1), recombinant protein fused to Fc; also called hPD-L1 protein
T1 sequence (Q9NZQ7 19-238): as the sequence (Q9NZQ7 19-238 limits assumed) above

[6] = molecular target: mPD-L1-His (mouse, UniProt Q9EP73 19-290, labelled with RED-NHS676 dye); test: MST; His-tagged PD-L1 (hPD-L1 200 nM, mPD-L1 800 nM) labelled 1:1 with 100 nM RED-NHS676 dye in PBST for 30 min; peptide diluted from 400 μM to 0.012 μM; standard capillaries, Monolith NT.115; settings: both partners purified
Sequence of mPD-L1-His (Q9EP73 19-290): as the sequence (Q9EP73 19-290) above

[7] = molecular target: hPD-L1-His (human, UniProt Q9NZQ7 19-290, labelled with RED-NHS676 dye); test: as above; settings: both partners purified
Sequence of hPD-L1-His (Q9NZQ7 19-290): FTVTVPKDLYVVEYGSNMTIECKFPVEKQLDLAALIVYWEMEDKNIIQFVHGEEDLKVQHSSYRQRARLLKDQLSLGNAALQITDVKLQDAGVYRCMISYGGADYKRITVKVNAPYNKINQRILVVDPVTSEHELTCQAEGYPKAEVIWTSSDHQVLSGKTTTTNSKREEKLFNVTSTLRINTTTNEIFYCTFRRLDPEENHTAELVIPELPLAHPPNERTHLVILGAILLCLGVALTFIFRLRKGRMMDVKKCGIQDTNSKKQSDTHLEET

Molecule: C[C@@H](O)[C@H](NC(=O)[C@@H]1CCCN1C(=O)[C@H](CCCCN)NC(=O)[C@H](CO)NC(=O)[C@H](Cc1ccc(O)cc1)NC(=O)[C@H](CC(N)=O)N=C[C@H](O)[C@@H](O)[C@@H](O)[C@H](O)CO)C(=O)N[C@@H](CC(=O)O)C(=O)N[C@@H](CCCNC(=N)N)C(=O)N[C@@H](CCC(N)=O)C(=O)N[C@@H](Cc1ccc(O)cc1)C(=O)N[C@@H](Cc1c[nH]cn1)C(=O)N[C@@H](Cc1ccccc1)C(=O)O [D-gal-^LPPA-1] (X1-YSKPTDRQYHF-OH)
- organ toxicity (H&E staining) [1]: no apparent toxicity observed
- Kd [2]: 0.015 ± 0.006 µM
- body weight [3]: no significant changes in body weight

- IC50 [4]: 75.5 ± 20.3 µM
Molecule: C[C@@H](O)[C@H](NC(=O)[C@@H]1CCCN1C(=O)[C@H](CCCCN)NC(=O)[C@H](CO)NC(=O)[C@H](Cc1ccc(O)cc1)NC(=O)[C@H](CC(N)=O)N=C[C@H](O)[C@@H](O)[C@H](O)[C@H](O)CO)C(=O)N[C@@H](CC(=O)O)C(=O)N[C@@H](CCCNC(=N)N)C(=O)N[C@@H](CCC(N)=O)C(=O)N[C@@H](Cc1ccc(O)cc1)C(=O)N[C@@H](Cc1c[nH]cn1)C(=O)N[C@@H](Cc1ccccc1)C(=O)O [D-glu-^LPPA-1] (X2-YSKPTDRQYHF-OH)

- IC50 [5]: 101 µM
- Kd [6]: 0.0149 µM
- Kd [7]: 0.047 µM
B1: D-gal-^LPPA-1 (peptide)
peptide: N(D‑galactose)YSKPTDRQYHF
notes: L-type peptide ^LPPA-1, L-amino-acid analogue of the PD-L1-targeting D-peptide ^DPPA-1; printed in three-letter code; source: synthetic peptide (Fmoc solid-phase synthesis, purified by reverse-phase HPLC)

- IC50 [5]: 75 µM
B2: D-glu-^LPPA-1 (peptide)
peptide: N(D‑glucose)YSKPTDRQYHF
notes: as for B1
